Assay [1] addresses T1, mouse ATB^0,+ (Mus musculus, UniProt Q9JMA9).
T1 sequence (Q9JMA9 1-638): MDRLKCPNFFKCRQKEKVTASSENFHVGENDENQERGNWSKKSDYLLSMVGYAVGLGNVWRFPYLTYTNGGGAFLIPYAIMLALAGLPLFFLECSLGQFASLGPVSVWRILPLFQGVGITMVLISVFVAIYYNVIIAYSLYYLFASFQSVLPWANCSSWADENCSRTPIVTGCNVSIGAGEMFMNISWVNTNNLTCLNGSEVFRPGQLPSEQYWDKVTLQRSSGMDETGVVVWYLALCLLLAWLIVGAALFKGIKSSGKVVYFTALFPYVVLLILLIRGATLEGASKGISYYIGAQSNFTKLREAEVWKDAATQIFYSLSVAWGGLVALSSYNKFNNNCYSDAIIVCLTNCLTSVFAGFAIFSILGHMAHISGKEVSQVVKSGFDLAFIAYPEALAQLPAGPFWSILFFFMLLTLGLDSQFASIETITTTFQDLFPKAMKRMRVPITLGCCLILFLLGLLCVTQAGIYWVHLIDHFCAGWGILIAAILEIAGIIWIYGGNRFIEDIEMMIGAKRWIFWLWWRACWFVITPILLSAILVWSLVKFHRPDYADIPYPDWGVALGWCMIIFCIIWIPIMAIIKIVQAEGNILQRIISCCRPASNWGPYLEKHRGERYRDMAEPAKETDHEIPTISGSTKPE
Description: Inhibition of ATB0,+-specific [3H]-L-NNA transport by amino acids in HRPE cells. The assay is classed as cell-based. The conditions noted are these: amino acids 5 mM; [3H]-L-NNA 10 μM.

Assay [2] concerns the target T1, mouse ATB^0,+.
The target of assay [3] is T1, mouse ATB^0,+. As to conditions: for Current in X. laevis oocytes (nA), L-isomer: L-amino acid 1 mM; for Current in X. laevis oocytes (nA), L-isomer / Current in X. laevis oocytes (nA), D-isomer: NaCl pH 7.5; for Current in X. laevis oocytes: NaCl medium pH 7.5, voltage clamp; for Current in X. laevis oocytes (nA), D-isomer: D-amino acid 1 mM.
Assay [4] addresses T1, mouse ATB^0,+. In words: Transport of radiolabeled substrates in HRPE cells expressing cloned mouse ATB0,+. As to conditions: HRPE cells. The assay is classed as cell-based.
Assay [5] has as its target T1, mouse ATB^0,+. This is another data set of the same source.

The results in this text go back to patent publication US20040142317A1, “Use of amino acid transporter atbo,+ as a delivery system for drugs and prodrugs” (priority 2003, published 2004).

Structures are written as SMILES. Values joined by “and” are separate entries in the source; they are usually repeats but may differ in a detail not shown here. Equal values may be shown once.

For `N=C(N)NCCC[C@H](N)C(=O)O` [Arginine], the “inhibition of ATB^0,+-specific L-NNA transport” value on mouse ATB^0,+ [1] was “inhibition”. In addition, the activity at mouse ATB^0,+ [2] was 30%. In addition, the “Current in X. laevis oocytes (nA), L-isomer” value (“Current … L-isomer” for short) at mouse ATB^0,+ [3] is on record as 339 ± 35 nA. Besides, on mouse ATB^0,+ [3] (compound 1 mM), the “inward current in the absence of Cl− (sodium gluconate)” value is “No measurable current”, the “inward current in the absence of Na+ (NMDG chloride)” value is “No measurable current” and the “Current in X. laevis oocytes” value was 382 ± 57 nA. In the case of `NC(=O)C[C@H](N)C(=O)O` [Asparagine, L-Asparagine], the “Current … L-isomer” value at mouse ATB^0,+ [3] was 394 ± 67 nA.

In the case of `NC(=O)NCCC[C@H](N)C(=O)O` [Citrulline], the “Current in X. laevis oocytes” value at mouse ATB^0,+ [3] (compound 1 mM) was 498 ± 114 nA. Take `C[C@@H](N)C(=O)O` [D-Alanine, D-alanine]: the “Current in X. laevis oocytes (nA), D-isomer” value (“Current … D-isomer” for short) at mouse ATB^0,+ [3] is listed as 402 ± 39 nA. In the case of `N=C(N)NCCC[C@H](N)C(=O)O` [D-Arginine, Arginine], the “Current … D-isomer” value at mouse ATB^0,+ [3] is given as 6 ± 1 nA. As to `NC(=O)C[C@H](N)C(=O)O` [D-Asparagine, Asparagine], at mouse ATB^0,+ [3], the “Current … D-isomer” value was determined as 3 ± 2 nA. Regarding `NC(=O)CC[C@@H](N)C(=O)O` [D-Glutamine, D-glutamine], the “Current … D-isomer” value at mouse ATB^0,+ [3] is on record as 16 ± 11 nA. Consider `N[C@H](Cc1c[nH]cn1)C(=O)O` [D-Histidine, D-histidine], for which the “Current … D-isomer” value on mouse ATB^0,+ [3] came out at 29 ± 6 nA.

For the compound `CC[C@H](C)[C@H](N)C(=O)O` [D-Isoleucine, Isoleucine], at mouse ATB^0,+ [3], the “Current … D-isomer” value is 4 ± 4 nA.

With `CC(C)C[C@@H](N)C(=O)O` [D-Leucine, D-leucine], the “Current … D-isomer” value at mouse ATB^0,+ [3] amounted to 161 ± 25 nA. The same measure, in the same setting: the same measure for `NCCCC[C@H](N)C(=O)O` [D-Lysine, Lysine]: 9 ± 9 nA.

On to `CSCC[C@@H](N)C(=O)O` [D-Methionine, D-methionine], for which, on mouse ATB^0,+ [3], the “Current … D-isomer” value stood at 213 ± 15 nA. In the case of `N[C@H](Cc1ccccc1)C(=O)O` [D-Phenylalanine, D-phenylalanine], the “Current … D-isomer” value on mouse ATB^0,+ [3] is reported as 24 ± 24 nA. On the same count and under the same terms, the result for `C[C@H](O)[C@@H](N)C(=O)O` [D-Threonine, D-threonine] reads 41 ± 5 nA; that for `N[C@H](Cc1c[nH]c2ccccc12)C(=O)O` [D-Tryptophan, D-tryptophan], 157 ± 23 nA. Turning to `CC(C)[C@H](N)C(=O)O` [D-Valine, Valine], on mouse ATB^0,+ [3], the “Current … D-isomer” value is reported as 4 ± 3 nA. On to `NC(=O)CC[C@H](N)C(=O)O` [Glutamine, L-Glutamine], for which, on mouse ATB^0,+ [3], the “Current … L-isomer” value turned out to be 453 ± 53 nA. Regarding `NCC(=O)O` [Glycine], at mouse ATB^0,+ [4], the “Hill coefficient for Na+ activation of substrate transport” value is reported as 2.0±0.1, the “K0.5 for Cl− in substrate transport” value amounted to 18 ± 8 mM, the “K0.5 for Na+ in substrate transport” value was 25 ± 1 mM and the “Michaelis-Menten constant (Kt) of transport via mouse ATB^0,+” value came out at 210 ± 18 µM. Further, the “transport in ATB^0,+ cDNA-transfected cells compared to vector-transfected cells” value at mouse ATB^0,+ [4] (radiolabeled substrate) was 38 fold and 30 fold. The “inhibition of ATB^0,+-specific L-NNA transport” value against mouse ATB^0,+ [1] is on record as “inhibition”. With `N[C@@H](Cc1c[nH]cn1)C(=O)O` [Histidine], at mouse ATB^0,+ [3], the “Current … L-isomer” value is on record as 410 ± 64 nA. Turning to `CC[C@H](C)[C@H](N)C(=O)O` [Isoleucine], the “Current … L-isomer” value at mouse ATB^0,+ [3] is given as 117 ± 16 nA. On to `N[C@@H](CC(=O)OCc1ccccc1)C(=O)O` [L-Aspartate β-benzyl ester], for which the IC50 at mouse ATB^0,+ [5] was 70 ± 8 µM. The “potency relative to benzyl ester of glutamate” value on mouse ATB^0,+ [5] (from IC50 values) is “about 2 fold”. As to `N=C(N)NOCC[C@H](N)C(=O)O` [L-Canavanine], on mouse ATB^0,+ [2], the activity is 24% and the inhibition came out at 75%. For the same compound, on mouse ATB^0,+ [3] (compound 1 mM), the “Current in X. laevis oocytes” value came out at 269 ± 73 nA.

Compound `N[C@@H](CCC(=O)OCc1ccccc1)C(=O)O` [L-Glutamate γ-benzyl ester] came in with an IC50 against mouse ATB^0,+ [5] of 156 ± 12 µM.
